Results from article PMC5266543 (ACS infectious diseases, 2016).
In brackets after ≈: the same amount, converted by molar mass. Entries after “also recorded” stand apart in the source; their conditions may differ. Where two headings read alike, the source gives them in different places. Marks after values point to notes of the source that are not given here.

Assays:
M. tuberculosis H37Rv = assay: microbe, parasite or virus in culture; type: cell-based, Mycobacterium tuberculosis; settings: for MIC: Mycobacterium tuberculosis, H37RV, read-out: M. tuberculosis MIC
Dxr = settings: cited from earlier work
Mtb Dxr = molecular target: T1, Mtb Dxr (Mycobacterium tuberculosis, UniProt P9WNS1); type: biochemical; settings: for IC50: read-out: Mtb Dxr IC50
T1 sequence (P9WNS1 1-413): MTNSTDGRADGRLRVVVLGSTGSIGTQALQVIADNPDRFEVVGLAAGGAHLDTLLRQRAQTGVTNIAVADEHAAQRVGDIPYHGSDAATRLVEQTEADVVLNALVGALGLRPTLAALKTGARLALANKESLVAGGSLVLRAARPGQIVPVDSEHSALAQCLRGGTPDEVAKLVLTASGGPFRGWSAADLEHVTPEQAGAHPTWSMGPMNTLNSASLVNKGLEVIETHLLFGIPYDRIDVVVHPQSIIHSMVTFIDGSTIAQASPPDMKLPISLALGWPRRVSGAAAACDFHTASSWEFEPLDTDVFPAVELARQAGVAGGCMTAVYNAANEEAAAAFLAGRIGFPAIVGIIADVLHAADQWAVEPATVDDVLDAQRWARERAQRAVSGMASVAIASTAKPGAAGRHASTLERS

Yp Dxr = Yp Dxr (Yersinia pestis, UniProt Q8ZH62); type: biochemical; settings: for IC50: read-out: Yp Dxr IC50
E. coli MG1655 = type: cell-based, Escherichia coli
Yp = type: cell-based, Yersinia pestis

Sequence of Yp Dxr (Q8ZH62 whole entry, looked up): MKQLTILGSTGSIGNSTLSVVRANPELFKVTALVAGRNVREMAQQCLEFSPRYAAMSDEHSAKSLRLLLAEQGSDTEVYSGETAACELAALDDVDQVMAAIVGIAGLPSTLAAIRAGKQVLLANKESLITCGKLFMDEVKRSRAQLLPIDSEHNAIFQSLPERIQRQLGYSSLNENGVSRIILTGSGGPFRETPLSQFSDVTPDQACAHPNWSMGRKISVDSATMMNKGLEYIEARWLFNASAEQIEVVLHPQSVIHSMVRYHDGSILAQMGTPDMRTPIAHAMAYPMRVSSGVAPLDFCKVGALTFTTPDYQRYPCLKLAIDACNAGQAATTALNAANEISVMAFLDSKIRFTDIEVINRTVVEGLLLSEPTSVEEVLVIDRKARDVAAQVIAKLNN

Structure (SMILES) | M. tuberculosis MIC (M. tuberculosis H37Rv) | inhibition of Mtb Dxr (in words) (Mtb Dxr) | percent remaining enzyme activity at 100 µM (Mtb Dxr) (Mtb Dxr) | inhibition of Yp Dxr (in words) (Yp Dxr) | also measured
O=CN(O)CCCP(=O)(O)O [Compound 1, fosmidomycin, reference compound] | – | – | – | – | MIC (M. tuberculosis H37Rv): > 500 µg/mL; mechanism of inhibition (Dxr): competitive inhibitors with respect to DXP and uncompetitive relative to NADPH
CC(=O)N(O)CCCP(=O)(O)O [Compound 2, FR900098] | >500 µg/mL | – | – | – | IC50 (Mtb Dxr): 2.91 µM; IC50 (Yp Dxr): 0.23 µM; growth inhibition activity (in words) (E. coli MG1655): potently inhibits bacterial propagation in a dose-dependent manner; growth inhibition activity (in words) (Yp): potently inhibits bacterial propagation in a dose-dependent manner; mechanism of inhibition (Dxr): competitive inhibitors with respect to DXP and uncompetitive relative to NADPH
CCCCC(=O)N(O)CCCP(=O)([O-])O.[Na+] [Compound 8a, Sodium hydrogen-3-(N-hydroxypentanamido)propyl phosphonate] | – | greatest inhibition | – | – | –
CCCCCCC(=O)N(O)CCCP(=O)([O-])O.[Na+] [Compound 8b, Sodium hydrogen-3-(N-hydroxyheptanamido)propyl phosphonate] | – | inhibited; also recorded: greatest inhibition | (43) ^* percent | inhibited; also recorded: most active | percent remaining enzyme activity at 100 µM (Yp Dxr) (Yp Dxr): (27) percent
O=C(CCC1CCCCC1)N(O)CCCP(=O)([O-])O.[Na+] [Compound 8d, Sodium hydrogen-3-(3-cyclohexyl-N-hydroxypropanamido)propyl phosphonate] | >200 (25) µg/mL | – | – | – | –
O=C(c1ccccc1)N(O)CCCP(=O)([O-])O.[Na+] [Compound 8e, Sodium hydrogen-3-(N-hydroxybenzamido)propyl phosphonate] | ≥200 µg/mL | – | (70) percent | most active | inhibitor modality (Lineweaver-Burk) (Yp Dxr): competitive with both NADPH and DXP; selectivity between Dxr homologs (Yp versus Mtb) (Yp Dxr): significantly more potent against Yp Dxr; Ki (Yp Dxr; read-out: Ki relative to DXP): 7.9 µM; Ki (Yp Dxr; read-out: Ki with respect to NADPH): 1.8 µM; IC50 (Yp Dxr): 4.45 µM
Cc1ccc(C(=O)N(O)CCCP(=O)([O-])O)cc1.[Na+] [Compound 8f, Sodium hydrogen-3-(N-hydroxy-4-methylbenzamido)propyl phosphonate] | – | – | (74) percent | most active | selectivity between Dxr homologs (Yp versus Mtb) (Yp Dxr): significantly more potent against Yp Dxr; IC50 (Yp Dxr): 16 µM
O=C(CCCc1ccccc1)N(O)CCCP(=O)([O-])O.[Na+] [Compound 8h, Sodium hydrogen-3-(N-hydroxy-4-phenylbutanamido)propyl phosphonate] | >200 µg/mL | greatest inhibition | – | most active | IC50 (Mtb Dxr): 17.8 µM; percent remaining enzyme activity at 100 µM (Yp Dxr) (Yp Dxr): (34) percent; binding modality (Dxr): competitively with DXP but noncompetitively with NADPH
O=C(COc1ccc(Cl)cc1)N(O)CCCP(=O)([O-])O.[Na+] [Compound 8l, Sodium hydrogen-3-(2-(4-chlorophenoxy)-N-hydroxyacetamido)propyl phosphonate] | >200 (25) µg/mL | – | – | – | –
O=C(N(O)CCCP(=O)([O-])O)N(c1ccccc1)c1ccccc1.[Na+] [Compound 8n, Sodium hydrogen-3-(1-hydroxy-3,3-diphenylureido)propyl phosphonate] | – | ineffective | – | ineffective | –
CC(=O)N(CCCP(=O)([O-])O)OCc1ccc(C(C)C)cc1.[Na+] [Compound 16d, Sodium Hydrogen 3-(N-((4-isopropylbenzyl)oxy)acetamido)propyl phosphonate] | 200 (25) µg/mL | potent inhibitors; also recorded: greatest inhibition | – | potent inhibitors; also recorded: most active | IC50 (Mtb Dxr): 48.4 µM; selectivity between Dxr homologs (Yp versus Mtb) (Yp Dxr): more potent against Yp Dxr; IC50 (Yp Dxr): 1.19 µM
CC(=O)N(CCCP(=O)([O-])O)OC(C)c1ccccc1.[Na+] (stereo not shown) [Compound 16e, Sodium Hydrogen 3-(N-(1-phenylethoxy)acetamido)propyl phosphonate] | – | greatest inhibition | (38.1) percent | most active | percent remaining enzyme activity at 100 µM (Yp Dxr) (Yp Dxr): (19) percent
CC(=O)N(CCCP(=O)([O-])O)OCCc1ccc(O)cc1.[Na+] [Compound 16g, Sodium Hydrogen 3-(N-(4-hydroxyphenethoxy)acetamido)propyl phosphonate] | – | – | (59) percent | most active | percent remaining enzyme activity at 100 µM (Yp Dxr) (Yp Dxr): (22) percent; selectivity between Dxr homologs (Yp versus Mtb) (Yp Dxr): same trend
CC(=O)N(CCCP(=O)([O-])O)OCCCCc1ccccc1.[Na+] [Compound 16h, Sodium Hydrogen 3-(N-(4-phenylbutoxy)acetamido)propyl phosphonate] | ≥200 µg/mL | – | – | – | –
CC(=O)N(CCCP(=O)([O-])O)OCc1cccc2ccccc12.[Na+] [Compound 16i, Sodium Hydrogen 3-(N-(naphthalen-1-ylmethoxy)acetamido)propyl phosphonate] | – | greatest inhibition | (29) percent | most active | selectivity between Dxr homologs (Yp versus Mtb) (Yp Dxr): more potent against Yp Dxr; IC50 (Yp Dxr): 22.4 µM
CC(=O)N(CCCP(=O)([O-])O)OCc1ccc2ccccc2c1.[Na+] [Compound 16j, Sodium Hydrogen 3-(N-(naphthalen-2-ylmethoxy)acetamido)propyl phosphonate] | ≥200 µg/mL | potent inhibitors; also recorded: greatest inhibition | – | potent inhibitors; also recorded: most active | inhibitor modality (Lineweaver-Burk) (Mtb Dxr): competitive with both NADPH and DXP; Ki (Mtb Dxr; read-out: Ki relative to NADPH): 17.8 µM; Ki (Mtb Dxr; read-out: Ki with respect to DXP): 1 µM; IC50 (Mtb Dxr): 1.45 µM; IC50 (Yp Dxr): 0.33 µM
CC(=O)N(CCCP(=O)([O-])O)OCc1ccc(-c2ccccc2)cc1.[Na+] [Compound 16k, Sodium Hydrogen 3-(N-([1,1'-biphenyl]-4-ylmethoxy)acetamido)propyl phosphonate] | 25 to 50 µg/mL | potent inhibitors; also recorded: greatest inhibition | (36.8) percent | potent inhibitors; also recorded: most active | selectivity between Dxr homologs (Yp versus Mtb) (Yp Dxr): more potent against Yp Dxr; IC50 (Yp Dxr): 8.4 µM
CC(=O)N(CCCP(=O)([O-])O)OCc1ccc(-c2ccc(C(C)C)cc2)cc1.[Na+] [Compound 16p, Sodium Hydrogen 3-(N-((4'-isopropyl-[1,1'-biphenyl]-4-yl)methoxy)acetamido)propyl phosphonate] | 100 (6.25–12.5) µg/mL | – | – | – | –
CC(=O)N(CCCP(=O)([O-])O)OCc1ccc(-c2ccc(C(F)(F)F)cc2)cc1.[Na+] [Compound 16r, Sodium Hydrogen 3-(N-((4'-(trifluoromethyl)-[1,1'-biphenyl]-4-yl)methoxy)acetamido)propyl phosphonate] | – | – | (70) percent | most active | percent remaining enzyme activity at 100 µM (Yp Dxr) (Yp Dxr): (19) percent
CC(=O)N(CCCP(=O)(OCOC(=O)C(C)(C)C)OCOC(=O)C(C)(C)C)OCc1ccc(C(C)C)cc1 [Compound 17, [({[(2,2-dimethylpropanoyl)oxy]methoxy}[3-(N-{[4-(propan-2-yl)phenyl]methoxy}acetamido)propyl]phosphoryl)oxy]methyl 2,2-dimethyl propanoate] | 12.5 (6.25–12.5) µg/mL | – | – | – | –
CC(=O)N(CCCP(=O)(OCOC(=O)C(C)(C)C)OCOC(=O)C(C)(C)C)OCCCCc1ccccc1 [Compound 18, [({[(2,2-dimethylpropanoyl)oxy]methoxy}({3-[N-(4-phenylbutoxy)acetamido]propyl})phosphoryl)oxy]methyl 2,2-dimethylpropanoate] | – | – | – | – | MIC (M. tuberculosis H37Rv): 12.5 µg/mL (≈ 22.4 µM)
CC(=O)N(CCCP(=O)(OCOC(=O)C(C)(C)C)OCOC(=O)C(C)(C)C)OCc1ccc(-c2ccccc2)cc1 [Compound 19, [({[(2,2-dimethylpropanoyl)oxy]methoxy}(3-{N-[(4-phenylphenyl)methoxy]acetamido}propyl)phosphoryl)oxy]methyl 2,2-dimethyl propanoate] | 12.5 (3.13–6.25) µg/mL | – | – | – | –
CC(=O)N(CCCP(=O)(OCOC(=O)C(C)(C)C)OCOC(=O)C(C)(C)C)OCc1ccc2ccccc2c1 [Compound 20, [({[(2,2-dimethylpropanoyl)oxy]methoxy}({3-[N-(naphthalen-2-ylmethoxy)acetamido]propyl})phosphoryl)oxy]methyl 2,2-dimethylpropanoate] | 18.75 (4.7) µg/mL | – | – | – | –
CC(=O)N(CCCP(=O)(OCOC(=O)c1ccccc1)OCOC(=O)c1ccccc1)OCCCCc1ccccc1 [Compound 21, [({[(benzoyl)oxy]methoxy}({3-[N-(4-phenylbutoxy)acetamido]propyl})phosphoryl)oxy]methyl benzoate] | – | – | – | – | MIC (M. tuberculosis H37Rv): 25 µg/mL (≈ 41.8 µM)
NNC(=O)c1ccncc1 [INH, reference compound] | 0.01 µg/mL | – | – | – | –
